Data: patent US4410459A, “Process for preparation of cytostatic compounds” (priority 1980, dated 1983)
Where two headings read alike, the source gives them in different places.

Key:
[1] = Acute toxicity in mice (i.p., Lichfield and Wilcoxon), with paralytic side effect; format: in vivo, male Swiss mice; conditions: for LD50: mouse, in vivo, ip; for Paralytic side effect: symbols 0 / + not defined
Experimental: The acute toxicity of the compounds according to the invention was tested on male Swiss mice weighing 27 to 31 g. The tests were carried out on groups of six mice. Test compounds were administered intraperitoneally, as injectable solutions prepared with physiological saline solution and optionally one drop of Tween 80.

NK/Ly ascites lymphoma = assay: NK/Ly ascites tumour test (survival and tumor-free animals); format: in vivo, Swiss-H/Riop outbred mice
Experimental: (§1) The effect of the new compounds on intraperitoneally transplantable tumors (P 388 mouse leukaemia and NK/Ly ascites lymphoma) is described hereinbelow. The P 388 leukaemia test was performed on BDF hybrid mice. The tests were carried out on groups of six mice and 10^6 tumor cells/animal were transplanted intraperitoneally. Administration of the test compounds was started in the 24th hour after transplantation. Treatment was performed intraperitoneally and the body weight and state of animals was controlled every day. The effect obtained on the treated animals is expressed in % of the mean length of life of the control group, given in days.
(§2) Into groups of ten Swiss-H/Riop outbred mice from our own breed 5×10^6 ascites tumour cells were transplanted intraperitoneally. In the 24th hour after transplantation treatment was started and the compounds were administered daily, altogether five times. The mean length of life of the control group amounted to 15.7 days.

P 388 mouse leukaemia = assay: P 388 leukaemia test (life span of i.p. transplanted mice); format: in vivo, BDF hybrid mice
Experimental: as §1

HeLa culture = assay: Metaphase block stages in stained tissue cultures; format: cell-based
Experimental: The test compounds were dissolved in the tissue cultures (HeLa culture) in concentrations ranging from the threshold dose of 1×10^-3 μg./ml. up to 100 μg./ml. In 24-hour cultures, by in vivo microscopic evaluation of the metaphase-arresting affect the following results were obtained.
Under similar conditions but using stained tissue cultures slight differences could be observed which can be classified as follows:
The first stage (minimal effective dose) is characterized by an increased ratio of blocked mitoses. A part is abnormal mitoses, for example three-group mitosis or polar chromosomes also occur. Generally the anaphases have already disappeared.
In the second stage a strong metaphase blocking is observed and practically there is no regulare mitosis present. Chromosomes are in the form of a loose glomus. The proportion of interphase cells is low.
In the third stage the chromosomas are aggregated in a mass in the middle of the cell. This state is called picnomitosis of "Ball-Metaphase".
In the fourth stage already the interphase cells are influenced. More particularly, the number of the blocked cells is decreased since they are not able to take part in mitosis. The cytoplasm of the cells (in interphase) is extended, its border is irregular, "fringy", the cells frequently have an elongated, fibroplast-like shape.
Finally, in the fifth stage the cytoplasm is filled in by a fine, reticular structure and the interphase cell has unambiguously been killed by the treatment.

[2] = system: intraperitoneally transplantable tumors (P 388 mouse leukaemia and NK/Ly ascites lymphoma); assay: Similar transplanted tumor tests with N-desmethyl-N-(methoxymethyl)-20'-desoxy-leurosidine (life span); format: in vivo; conditions: for Treated/Control: mean length of life
Experimental: as §1, §2
Similar tests were performed with N-desmethyl-N-(methoxymethyl)-20'-desoxy-leurosidine. In these tests the doses and the number of treatments were varied.

[3] = Mus musculus, P388, ip, mean length of life, 8 × 0.4 mg./kg. i.p., read-out: Treated/Control
[4] = Mus musculus, P388, ip, mean length of life, 8 × 4.0 mg./kg. i.p., read-out: Treated/Control
[5] = Mus musculus, P388, ip, mean length of life, 8 × 8.0 mg./kg. i.p., read-out: Treated/Control
[6] = Mus musculus, P388, ip, mean length of life, 8 × 2.0 mg./kg. i.p., read-out: Treated/Control
[7] = Mus musculus, P388, ip, mean length of life, 8 × 1.0 mg./kg. i.p., read-out: Treated/Control

Row | SMILES | LD50 [1] | Paralytic side effect [1] | Mean length of life, treated (P 388 mouse leukaemia; 8 × 0.4 mg./kg. i.p.) | Mean length of life, treated (P 388 mouse leukaemia; 8 × 4.0 mg./kg. i.p.) | Mean length of life, treated (P 388 mouse leukaemia; 8 × 8.0 mg./kg. i.p.) | response vs control in vivo at 0.4 mg/kg (P 388 mouse leukaemia; [3]) | response vs control in vivo at 4 mg/kg (P 388 mouse leukaemia; [4]) | response vs control in vivo at 8 mg/kg (P 388 mouse leukaemia; [5]) | further results
1 | C=CCOCN1c2cc(OC)c(C3(C(=O)OC)CC4CN(CCc5c3[nH]c3ccccc53)CC(O)(CC)C4)cc2C23CCN4CC=CC(CC)(C(OC(C)=O)C(O)(C(=O)OC)C12)C43 (stereo not shown) [N-Desmethyl-N-(allyloxymethyl)-vinblastine] | ~45 mg/kg | 0 | 15.0 days | 21.0 days | 20.5 days | 145% | 200% | 207% | alive (NK/Ly ascites lymphoma; 5 × 4.0 mg./kg. i.p.): 10/10; on the 25th day tumor-free (NK/Ly ascites lymphoma; 5 × 4.0 mg./kg. i.p.): 10/10; on the 30th day tumor-free (NK/Ly ascites lymphoma; 5 × 4.0 mg./kg. i.p.): 6/10
2 | CCC1(O)CC2CN(CCc3c([nH]c4ccccc34)C(C(=O)OC)(c3cc4c(cc3OC)N(COCc3ccccc3)C3C(O)(C(=O)OC)C(OC(C)=O)C5(CC)C=CCN6CCC43C65)C2)C1 (stereo not shown) [N-Desmethyl-N-(benzyloxymethyl)-vinblastine] | ~70 mg/kg | 0 | 13.0 days | 18.3 days | – | 126% | 178% | – | relative effectiveness (HeLa culture): weakest effect; effect on mitosis at lowest dose (HeLa culture; 0.001 μg./ml.): minimum block with several deformed mitoses but without anaphases; effect on mitosis at 0.01 μg./ml. (HeLa culture; 0.01 μg./ml.): the block was moderate; Mean length of life, treated (P 388 mouse leukaemia; 5 × 8.0 mg./kg. i.p.): 19.2 days; response vs control in vivo at 8 mg/kg (P 388 mouse leukaemia; Mus musculus, P388, ip, mean length of life, 5 × 8.0 mg./kg. i.p., read-out: Treated/Control): 195%
3 | CCC1(O)CC2CN(CCc3c([nH]c4ccccc34)C(C(=O)OC)(c3cc4c(cc3OC)N(COC3CCCCC3)C3C(O)(C(=O)OC)C(OC(C)=O)C5(CC)C=CCN6CCC43C65)C2)C1 (stereo not shown) [N-Desmethyl-N-(cyclohexaloxymethyl)vinblastine] | ~60 mg/kg | 0 | 13.1 days | 18.8 days | 19.3 days | 127% | 181% | 197% | alive (NK/Ly ascites lymphoma; 5 × 4.0 mg./kg. i.p.): 10/10; on the 25th day tumor-free (NK/Ly ascites lymphoma; 5 × 4.0 mg./kg. i.p.): 5/10; on the 30th day tumor-free (NK/Ly ascites lymphoma; 5 × 4.0 mg./kg. i.p.): 3/10
4 | CCOCN1c2cc(OC)c(C3(C(=O)OC)CC4CN(CCc5c3[nH]c3ccccc53)CC(O)(CC)C4)cc2C23CCN4CC=CC(CC)(C(OC(C)=O)C(O)(C(=O)OC)C12)C43 (stereo not shown) [N-Desmethyl-N-(ethoxymethyl)-vinblastine] | ~110 mg/kg | 0 | – | 18.5 days | 20.5 days | – | 167% | 208% | Mean length of life, treated (P 388 mouse leukaemia; 8 × 2.0 mg./kg. i.p.): 20.3 days; response vs control in vivo at 2 mg/kg (P 388 mouse leukaemia; [6]): 193%
5 | CCCCCCCOCN1c2cc(OC)c(C3(C(=O)OC)CC4CN(CCc5c3[nH]c3ccccc53)CC(O)(CC)C4)cc2C23CCN4CC=CC(CC)(C(OC(C)=O)C(O)(C(=O)OC)C12)C43 (stereo not shown) [N-Desmethyl-N-(heptoxymethyl)-vinblastine] | ~60 mg/kg | 0 | 14.3 days | 18.7 days | 21.3 days | 139% | 181% | 247% | relative effectiveness (HeLa culture): most effective compound; alive (NK/Ly ascites lymphoma; 5 × 6.0 mg./kg. i.p.): 10/10; on the 25th day tumor-free (NK/Ly ascites lymphoma; 5 × 6.0 mg./kg. i.p.): 7/10; on the 30th day tumor-free (NK/Ly ascites lymphoma; 5 × 6.0 mg./kg. i.p.): 3/10
6 | CCC1CC2CN(CCc3c([nH]c4ccccc34)C(C(=O)OC)(c3cc4c(cc3OC)N(COC)C3C(O)(C(=O)OC)C(OC(C)=O)C5(CC)C=CCN6CCC43C65)C2)C1 (stereo not shown) [N-Desmethyl-N-(methoxymethyl)-20'-desoxyleurosidine] | – | – | – | – | – | – | – | – | Mean length of life, treated ([2]; 4 × 7 mg./kg. i.p.): 17.1 days; Mean length of life, treated ([2]; 4 × 8 mg./kg. i.p.): 21.8 days; Mean length of life, treated ([2]; 8 × 0.5 mg./kg. i.p.): 15.3 days; Mean length of life, treated ([2]; 8 × 1 mg./kg. i.p.): 21.7 days; Mean length of life, treated ([2]; 8 × 4 mg./kg. i.p.): 20.8 days; Treated/Control ([2]; 4 × 7 mg./kg. i.p.): 142%; Treated/Control ([2]; 4 × 8 mg./kg. i.p.): 180%; Treated/Control ([2]; 8 × 0.5 mg./kg. i.p.): 126%; Treated/Control ([2]; 8 × 1 mg./kg. i.p.): 178%; Treated/Control ([2]; 8 × 4 mg./kg. i.p.): 180%
7 | CCC1(O)CC2CN(CCc3c([nH]c4ccccc34)C(C(=O)OC)(c3cc4c(cc3OC)N(COC)C3C(O)(C(=O)OC)C(OC(C)=O)C5(CC)C=CCN6CCC43C65)C2)C1 (stereo not shown) [N-Desmethyl-N-(methoxymethyl)-vinblastine] | ~100 mg/kg | 0 | – | – | – | – | 171% | – | Mean length of life, treated (P 388 mouse leukaemia; 8 × 1.0 mg./kg. i.p.): 12.7 days; Mean length of life, treated (P 388 mouse leukaemia; 8 × 6.0 mg./kg. i.p.): 19.2 days; response vs control in vivo at 1 mg/kg (P 388 mouse leukaemia; [7]): 122%; response vs control in vivo at 6 mg/kg (P 388 mouse leukaemia; Mus musculus, P388, ip, mean length of life, 8 × 6.0 mg./kg. i.p., read-out: Treated/Control): 182%
8 | CCCOCN1c2cc(OC)c(C3(C(=O)OC)CC4CN(CCc5c3[nH]c3ccccc53)CC(O)(CC)C4)cc2C23CCN4CC=CC(CC)(C(OC(C)=O)C(O)(C(=O)OC)C12)C43 (stereo not shown) [N-Desmethyl-N-(propoxymethyl)-vinblastine] | ~80 mg/kg | 0 | – | 19.0 days | 20.2 days | – | 171% | 205% | Mean length of life, treated (P 388 mouse leukaemia; 8 × 1.0 mg./kg. i.p.): 15.0 days; Mean length of life, treated (P 388 mouse leukaemia; 8 × 2.0 mg./kg. i.p.): 20.8 days; Mean length of life, treated (P 388 mouse leukaemia; 8 × 10.0 mg./kg. i.p.): 14.7 days; Toxicity (P 388 mouse leukaemia; 8 × 10.0 mg./kg. i.p., footnote: The animals died tumorfree): toxic; response vs control in vivo at 1 mg/kg (P 388 mouse leukaemia; [7]): 145%; response vs control in vivo at 2 mg/kg (P 388 mouse leukaemia; [6]): 198%; response vs control in vivo at 10 mg/kg (P 388 mouse leukaemia; Mus musculus, P388, ip, mean length of life, 8 × 10.0 mg./kg. i.p., read-out: Treated/Control): 142%
9 | CC[C@]1(O)C[C@@H]2CN(CCc3c([nH]c4ccccc34)[C@@](C(=O)OC)(c3cc4c(cc3OC)N(C)[C@H]3[C@@](O)(C(=O)OC)[C@H](OC(C)=O)[C@]5(CC)C=CCN6CC[C@]43[C@@H]65)C2)C1 [vinblastine, reference compound] | – | 0 | – | – | – | – | – | – | –
10 | CC[C@]1(O)C[C@@H]2CN(CCc3c([nH]c4ccccc34)[C@@](C(=O)OC)(c3cc4c(cc3OC)N(C)[C@H]3[C@@](O)(C(N)=O)[C@H](O)[C@]5(CC)C=CCN6CC[C@]43[C@@H]65)C2)C1 [vindesine, reference compound] | 4 mg/kg | – | – | – | – | – | – | – | –
